# Measurements: article PMC10962247 (Science translational medicine, 2024)
# Biological target: T1, Glycogen synthase 1 (GYS1) (Homo sapiens, UniProt P13807)
# T1 sequence (P13807 1-737): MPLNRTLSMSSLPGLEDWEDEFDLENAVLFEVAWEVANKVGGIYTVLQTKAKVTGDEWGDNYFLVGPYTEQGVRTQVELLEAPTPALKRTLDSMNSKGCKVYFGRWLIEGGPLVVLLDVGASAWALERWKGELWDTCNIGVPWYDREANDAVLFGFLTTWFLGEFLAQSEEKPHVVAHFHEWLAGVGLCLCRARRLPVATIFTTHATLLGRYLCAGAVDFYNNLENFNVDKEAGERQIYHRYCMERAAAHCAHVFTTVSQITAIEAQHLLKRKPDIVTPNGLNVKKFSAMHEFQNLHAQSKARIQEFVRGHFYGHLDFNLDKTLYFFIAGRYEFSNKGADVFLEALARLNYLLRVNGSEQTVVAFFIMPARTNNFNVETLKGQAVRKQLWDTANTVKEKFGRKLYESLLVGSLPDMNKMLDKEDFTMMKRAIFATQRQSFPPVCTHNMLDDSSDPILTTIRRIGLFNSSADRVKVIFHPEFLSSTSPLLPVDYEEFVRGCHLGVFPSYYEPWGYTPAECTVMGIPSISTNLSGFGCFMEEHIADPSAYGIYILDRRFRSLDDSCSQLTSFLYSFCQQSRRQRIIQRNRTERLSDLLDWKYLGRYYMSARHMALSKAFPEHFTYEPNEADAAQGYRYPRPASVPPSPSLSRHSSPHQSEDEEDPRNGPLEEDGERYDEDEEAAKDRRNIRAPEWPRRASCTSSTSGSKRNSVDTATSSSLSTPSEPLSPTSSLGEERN
# T1 sequence (P46976 2-350 partner): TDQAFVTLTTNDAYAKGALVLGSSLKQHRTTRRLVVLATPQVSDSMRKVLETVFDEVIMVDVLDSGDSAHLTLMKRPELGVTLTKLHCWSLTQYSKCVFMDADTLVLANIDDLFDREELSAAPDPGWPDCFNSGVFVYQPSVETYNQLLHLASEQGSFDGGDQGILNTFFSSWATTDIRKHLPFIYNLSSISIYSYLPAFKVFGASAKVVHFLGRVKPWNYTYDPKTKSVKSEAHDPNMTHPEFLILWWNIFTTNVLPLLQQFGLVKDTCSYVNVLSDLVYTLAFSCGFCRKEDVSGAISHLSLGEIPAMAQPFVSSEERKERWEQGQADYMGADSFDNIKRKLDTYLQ
# Experiment: PK/LDH coupled enzyme assay with recombinant GYS1 in the presence of G6P
# Format: biochemical
smiles,measurement,value
CC(C)c1ccc([C@@H](NC(=O)[C@@H]2C[C@@H](F)CN2C(=O)Cc2cn[nH]n2)c2ccccc2)cc1 [MZ-101],IC50,41 nM
